Test results as given in patent publication EP4603105A1, “PHARMACEUTICAL COMPOSITION CONTAINING CYCLIC COMPOUND HAVING SELECTIVE KRAS INHIBITORY EFFECT AGAINST HRAS AND NRAS” (CHUGAI SEIYAKU KABUSHIKI KAISHA, priority 2022, dated 2024).

What was measured:
[1] = test system: human lung cancer strain NCI-H441; format: cell-based
Procedure, shortened: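 Signal came from […] measured per well once the reagent was added. Beforehand, cells were cultured at 37°C and 5% carbon dioxide on a compound series serially diluted in dimethyl sulfoxide.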

[2] = target: HRAS wild-type protein (Homo sapiens, UniProt P01112); assay: Binding to HRAS by surface plasmon resonance (SPR), KD and KD ratio to KRAS; settings: ratio of the KD value with respect to HRAS wild-type protein to the KD value with respect to KRAS
Procedure, shortened: (§1)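 Recombinant RAS proteins bearing a biotinylated Avi tag and loaded with GDP served as the captured ligand, recaptured fresh every cycle. Binding responses were referenced to an uncoated surface and a buffer-only blank cycle. Dissociation constants were obtained by 1:1 model fitting at 30°C.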

[3] = target: GDP-bound NRAS wild-type protein (Homo sapiens, UniProt P01111); assay: Binding to NRAS by surface plasmon resonance (SPR), KD and KD ratio to KRAS; settings: ratio of the KD value with respect to GDP-bound NRAS wild-type protein to the KD value with respect to KRAS
Procedure, shortened: as §1

Sequence of GDP-bound NRAS wild-type protein (P01111 whole entry): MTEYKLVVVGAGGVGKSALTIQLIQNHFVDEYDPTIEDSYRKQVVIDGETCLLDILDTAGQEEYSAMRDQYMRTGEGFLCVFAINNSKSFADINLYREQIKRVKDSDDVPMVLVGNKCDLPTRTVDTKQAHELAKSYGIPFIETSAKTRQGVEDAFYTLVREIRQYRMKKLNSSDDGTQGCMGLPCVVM
Sequence of HRAS wild-type protein (P01112 whole entry): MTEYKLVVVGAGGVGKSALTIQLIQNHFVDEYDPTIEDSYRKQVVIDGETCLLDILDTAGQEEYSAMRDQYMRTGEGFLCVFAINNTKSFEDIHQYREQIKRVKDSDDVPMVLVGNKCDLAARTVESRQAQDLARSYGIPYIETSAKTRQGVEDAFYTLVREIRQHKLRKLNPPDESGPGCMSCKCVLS

SMILES	IC50 [1] [nM]	HRAS /KRAS [2]	NRAS /KRAS [3]
CC[C@H](C)[C@@H]1NC(=O)[C@H](CC(C)C)N(C)C(=O)C[C@@H](C(=O)N2CCOCC2)N(C)C(=O)[C@H](C2CCCC2)N(C)C(=O)C2(CCCC2)NC(=O)[C@@H]2CCCN2C(=O)[C@H](CCc2cc(F)c(C(F)(F)F)c(F)c2)NC(=O)CN(C)C(=O)[C@H](Cc2ccc(C(F)(F)F)cc2)N2CCCC[C@@H](C2=O)N(C)C(=O)CNC1=O [PP0542]	3.4	B (a compound having 3 or more and less than 10 is denoted as B)	B (a compound having 3 or more and less than 10 is denoted as B)
CC[C@H](C)[C@@H]1NC(=O)[C@H](CC(C)C)N(C)C(=O)C[C@@H](C(=O)N2CCOCC2)N(C)C(=O)[C@H](C2CCCC2)N(C)C(=O)C2(CCCC2)NC(=O)[C@@H]2CCCN2C(=O)[C@H](CCc2cc(F)c(C(F)(F)F)c(F)c2)NC(=O)CN(C)C(=O)[C@H](Cc2ccc(C(F)(F)F)cc2)N2CCCC[C@@H](C2=O)N(C)C(=O)[C@H](C)NC1=O [PP0543]	41.5	B (a compound having 3 or more and less than 10 is denoted as B)	B (a compound having 3 or more and less than 10 is denoted as B)
CC[C@H](C)[C@@H]1NC(=O)[C@H](CC(C)C)N(C)C(=O)C[C@@H](C(=O)N2CCOCC2)N(C)C(=O)[C@H](C2CCCC2)N(C)C(=O)C2(CCCC2)NC(=O)[C@@H]2CCCN2C(=O)[C@H](CCc2cc(F)c(C(F)(F)F)c(F)c2)NC(=O)CN(C)C(=O)[C@H](Cc2ccc(C(F)(F)F)cc2)N2CCCC[C@@H](C2=O)N(C)C(=O)[C@H](C)N(C)C1=O [PP0544]	647	B (a compound having 3 or more and less than 10 is denoted as B)	B (a compound having 3 or more and less than 10 is denoted as B)
CC[C@H](C)[C@@H]1NC(=O)[C@H](CC(C)C)N(C)C(=O)C[C@@H](C(=O)N2CCOCC2)N(C)C(=O)[C@H](C2CCCC2)N(C)C(=O)C2(CCCC2)NC(=O)[C@@H]2CCCN2C(=O)[C@H](CCc2cc(F)c(C(F)(F)F)c(F)c2)NC(=O)CN(C)C(=O)[C@H](Cc2ccc(C(F)(F)F)cc2)N2CCCC[C@@H](C2=O)N(C)C(=O)CN(CC)C1=O [PP0545]	14	B (a compound having 3 or more and less than 10 is denoted as B)	B (a compound having 3 or more and less than 10 is denoted as B)
CC[C@H](C)[C@@H]1NC(=O)[C@H](CC(C)C)N(C)C(=O)C[C@@H](C(=O)N2CCOCC2)N(C)C(=O)[C@H](C2CCCC2)N(C)C(=O)C2(CCCC2)NC(=O)[C@@H]2CCCN2C(=O)[C@H](CCc2cc(F)c(C(F)(F)F)c(F)c2)NC(=O)CN(C)C(=O)[C@H](Cc2ccc(C(F)(F)F)cc2)N2CCCC[C@@H](C2=O)N(C)C(=O)[C@@H]2CCCN2C1=O [PP0547]	21.5	B (a compound having 3 or more and less than 10 is denoted as B)	B (a compound having 3 or more and less than 10 is denoted as B)
CC[C@H](C)[C@@H]1NC(=O)[C@H](CC(C)C)N(C)C(=O)C[C@@H](C(=O)N2CCOCC2)N(C)C(=O)[C@H](C2CCCC2)N(C)C(=O)C2(CCCC2)NC(=O)[C@@H]2CCCN2C(=O)[C@H](CCc2cc(F)c(C(F)(F)F)c(F)c2)NC(=O)CN(C)C(=O)[C@H](Cc2ccc(C(F)(F)F)cc2)N2CCCC[C@@H](C2=O)N(C)C(=O)[C@@H]2CCCCN2C1=O [PP0548]	501	B (a compound having 3 or more and less than 10 is denoted as B)	C (A compound having a KD ratio of 0.1 or more and less than 3 is denoted as C)
CC[C@H](C)[C@@H]1NC(=O)[C@H](C)N(C)C(=O)C[C@@H](C(=O)N2CCOCC2)N(C)C(=O)[C@H](C2CCCC2)N(C)C(=O)C2(CCCC2)NC(=O)[C@@H]2CCCN2C(=O)[C@H](CCc2cc(F)c(C(F)(F)F)c(F)c2)NC(=O)CN(C)C(=O)[C@H](Cc2ccc(C(F)(F)F)cc2)N2CCCC[C@@H](C2=O)N(C)C(=O)CN(C)C1=O [PP0549]	13	B (a compound having 3 or more and less than 10 is denoted as B)	C (A compound having a KD ratio of 0.1 or more and less than 3 is denoted as C)
CC[C@H](C)[C@@H]1NC(=O)[C@H](CC(C)C)N(C)C(=O)C[C@@H](C(=O)N2CCOCC2)N(C)C(=O)[C@H](C2CCCC2)N(C)C(=O)C2(CCCC2)NC(=O)[C@@H]2CCCN2C(=O)[C@H](CCc2cc(F)c(C(F)(F)F)c(F)c2)NC(=O)CN(C)C(=O)[C@H](Cc2ccc(C(F)(F)F)cc2)N2CCCC[C@@H](C2=O)N(C)C(=O)CN(C)C1=O [PP0552]	2.8	B (a compound having 3 or more and less than 10 is denoted as B)	B (a compound having 3 or more and less than 10 is denoted as B)
CCO[C@@H]1C[C@H]2C(=O)NC3(CCCC3)C(=O)N(C)[C@@H](C3CCCC3)C(=O)N(C)[C@H](C(=O)N3CCOCC3)CC(=O)N(C)[C@@H](CC(C)C)C(=O)N[C@@H]([C@@H](C)CC)C(=O)N(C)CC(=O)N(C)[C@H]3CCCCN(C3=O)[C@@H](Cc3ccc(C(F)(F)F)cc3)C(=O)N(C)CC(=O)N[C@@H](CCc3cc(F)c(C(F)(F)F)c(F)c3)C(=O)N2C1 [PP0554]	1.6	B (a compound having 3 or more and less than 10 is denoted as B)	B (a compound having 3 or more and less than 10 is denoted as B)
CC[C@H](C)[C@@H]1NC(=O)[C@H](CC(C)C)N(C)C(=O)C[C@@H](C(=O)N2CCOCC2)N(C)C(=O)[C@H](C2CCCC2)N(C)C(=O)C2(CCCC2)NC(=O)[C@@H]2CC(=O)CN2C(=O)[C@H](CCc2cc(F)c(C(F)(F)F)c(F)c2)NC(=O)CN(C)C(=O)[C@H](Cc2ccc(C(F)(F)F)cc2)N2CCCC[C@@H](C2=O)N(C)C(=O)CN(C)C1=O [PP0555]	48.5	B (a compound having 3 or more and less than 10 is denoted as B)	B (a compound having 3 or more and less than 10 is denoted as B)
CC[C@H](C)[C@@H]1NC(=O)[C@H](CC(C)C)N(C)C(=O)C[C@@H](C(=O)N2CCOCC2)N(C)C(=O)[C@H](C2CCCC2)N(C)C(=O)C2(CCCC2)NC(=O)[C@@H]2C[C@H](O)CN2C(=O)[C@H](CCc2cc(F)c(C(F)(F)F)c(F)c2)NC(=O)CN(C)C(=O)[C@H](Cc2ccc(C(F)(F)F)cc2)N2CCCC[C@@H](C2=O)N(C)C(=O)CN(C)C1=O [PP0556]	21	B (a compound having 3 or more and less than 10 is denoted as B)	C (A compound having a KD ratio of 0.1 or more and less than 3 is denoted as C)
CC[C@H](C)[C@@H]1NC(=O)[C@H](CC(C)C)N(C)C(=O)C[C@@H](C(=O)N2CCOCC2)N(C)C(=O)[C@H](C2CCCC2)N(C)C(=O)C2(CCCC2)NC(=O)[C@@H]2C[C@H](OC)CN2C(=O)[C@H](CCc2cc(F)c(C(F)(F)F)c(F)c2)NC(=O)CN(C)C(=O)[C@H](Cc2ccc(C(F)(F)F)cc2)N2CCCC[C@@H](C2=O)N(C)C(=O)CN(C)C1=O [PP0557]	14.8	B (a compound having 3 or more and less than 10 is denoted as B)	B (a compound having 3 or more and less than 10 is denoted as B)
CC[C@H](C)[C@@H]1NC(=O)[C@H](CC(C)C)N(C)C(=O)C[C@@H](C(=O)N2CCOCC2)N(C)C(=O)[C@H](C2CCCC2)N(C)C(=O)C2(CC2)NC(=O)[C@@H]2CCCN2C(=O)[C@H](CCc2cc(F)c(C(F)(F)F)c(F)c2)NC(=O)CN(C)C(=O)[C@H](Cc2ccc(C(F)(F)F)cc2)N2CCCC[C@@H](C2=O)N(C)C(=O)CN(C)C1=O [PP0559]	23.1	B (a compound having 3 or more and less than 10 is denoted as B)	B (a compound having 3 or more and less than 10 is denoted as B)
CC[C@H](C)[C@@H]1NC(=O)[C@H](CC(C)C)N(C)C(=O)C[C@@H](C(=O)N2CCOCC2)N(C)C(=O)[C@H](C2CCCC2)N(C)C(=O)C2(CCC2)NC(=O)[C@@H]2CCCN2C(=O)[C@H](CCc2cc(F)c(C(F)(F)F)c(F)c2)NC(=O)CN(C)C(=O)[C@H](Cc2ccc(C(F)(F)F)cc2)N2CCCC[C@@H](C2=O)N(C)C(=O)CN(C)C1=O [PP0560]	5.2	B (a compound having 3 or more and less than 10 is denoted as B)	B (a compound having 3 or more and less than 10 is denoted as B)
CC[C@H](C)[C@@H]1NC(=O)[C@H](CC(C)C)N(C)C(=O)C[C@@H](C(=O)N2CCOCC2)N(C)C(=O)[C@H](C2CCCC2)N(C)C(=O)C2(CCCCC2)NC(=O)[C@@H]2CCCN2C(=O)[C@H](CCc2cc(F)c(C(F)(F)F)c(F)c2)NC(=O)CN(C)C(=O)[C@H](Cc2ccc(C(F)(F)F)cc2)N2CCCC[C@@H](C2=O)N(C)C(=O)CN(C)C1=O [PP0561]	20.9	B (a compound having 3 or more and less than 10 is denoted as B)	B (a compound having 3 or more and less than 10 is denoted as B)
